Values after ≈ are worked out from the molar mass of the structure shown. Read-outs that look alike come from different tables or passages of the source. Values belong to the compound of their own block, whether it stands above or below them.
Assays:
[1] = system: Candida albicans ATCC 10231; test: Antimicrobial microdilution / modified Richards method; type: cell-based; settings: ATCC10231; Candida albicans 10231; according to the EUCAST examination; read-out: MIC (reference agent)
[2] = system: Enterococcus faecalis ATCC 29212; test: as above; type: cell-based; settings: range tested 1024 to 1 ug/mL
[3] = system: other cell lines (Caco-2, A172, HeLa, AGS); test: Neutral red uptake assay, other neoplastic cell lines; type: cell-based, human; settings: cell lines other than HepaRG; viability decreased at 100–1000 µM; 72 h exposure
Experimental: (§1) L-929 (mouse C3H/An connective tissue), Caco-2 (human colon adenocarcinoma), A172 (human glioblastoma), AGS (human gastric adenocarcinoma), HepaRG (human hepatoma cell), and HeLa (human cervix epithelioid carcinoma) cell lines were obtained from the European Collection of Authenticated Cell Cultures (ECACC) and provided by Sigma Aldrich/Merck (Munich, Germany). All cell lines were cultured in complete mediums prepared according to the ECACC recommendations and incubated in a humidified atmosphere with 5% CO2 at 37 °C. Neutral red uptake assay was performed according to the protocol. 24 h before treatment cells were seeded in 96-well plates in 1 × 10^5 cell/mL of complete medium. After incubation and attachment of cells, the medium was discarded, and test substances dissolved in the fresh medium were added to wells. Samples were tested after 24, 48, and 72 h incubation. A neutral red working solution (40 µg/mL) was prepared and incubated overnight. […] Absorption was measured using a Thermo Scientific™ (Waltham, MA, USA) Multiskan™ GO microplate spectrophotometer at 540 nm. […] Viability was calculated according to the following formula:(1) % Viability=ODtest substance−ODblind/ODnegative control−ODblind×100 Neutral red uptake assay was performed in quadruple (n = 4). Results were calculated to mean ± standard deviation (SD) using Microsoft Office Excel 2007. […]

L-929 cell line = test: Neutral red uptake assay, L-929 cell line (primary screening); type: cell-based, mouse; settings: normal cell line L-929
Experimental: L-929 (mouse C3H/An connective tissue), Caco-2 (human colon adenocarcinoma), A172 (human glioblastoma), AGS (human gastric adenocarcinoma), HepaRG (human hepatoma cell), and HeLa (human cervix epithelioid carcinoma) cell lines were obtained from the European Collection of Authenticated Cell Cultures (ECACC) and provided by Sigma Aldrich/Merck (Munich, Germany). All cell lines were cultured in complete mediums prepared according to the ECACC recommendations and incubated in a humidified atmosphere with 5% CO2 at 37 °C. Neutral red uptake assay was performed according to the protocol. 24 h before treatment cells were seeded in 96-well plates in 1 × 10^5 cell/mL of complete medium. After incubation and attachment of cells, the medium was discarded, and test substances dissolved in the fresh medium were added to wells. Samples were tested after 24, 48, and 72 h incubation. A neutral red working solution (40 µg/mL) was prepared and incubated overnight. Immediately before use, it was centrifuged to remove any dye crystals. The medium from wells was aspirated, and 100 µL of neutral red was added to plates and incubated for at least 2 h in 37 °C and 5% CO2 in a humidified atmosphere. To inspect the absorption of neutral red to the lysosomes, microscope visualizations were performed. After incubation, cells were washed with PBS, and destain solution containing ethanol, deionized water, and glacial acetic acid (50:49:1) was added. Plates were shaken rapidly on a horizontal shaker at 37 °C. Absorption was measured using a Thermo Scientific™ (Waltham, MA, USA) Multiskan™ GO microplate spectrophotometer at 540 nm. The negative control was a medium with 1% DMSO, and the positive control was 1 µM staurosporine. Viability was calculated according to the following formula:(1) % Viability=ODtest substance−ODblind/ODnegative control−ODblind×100 Neutral red uptake assay was performed in quadruple (n = 4). Results were calculated to mean ± standard deviation (SD) using Microsoft Office Excel 2007. The viability in negative control was compared to 100%. Statistical analyses were performed using the GraphPad Prism 8.3 for Windows (GraphPad Software, La Jolla, CA, USA, www.graphpad.com). For IC50 results, non-linear regression analyses were performed, and a sigmoidal dose-response curve (variable slope) was fitted. Differences between groups and control were tested using an ANOVA test followed by Dunnett’s post hoc analysis. The significance was set at p ≤ 0.05.

HepaRG = test: Neutral red uptake assay, HepaRG; type: cell-based; settings: Homo sapiens, 72 h exposure
Experimental: as §1

[4] = system: Escherichia coli ATCC 25922; test: Antimicrobial microdilution / modified Richards method; type: cell-based; settings: ATCC25922; Escherichia coli 25922; according to the EUCAST examination; read-out: MIC (reference agent)
[5] = Enterococcus faecalis ATCC 29212

MIC [1]: 1 µg/mL (≈ 1.08 µM)
SMILES: C[C@@H]1[C@H](O)[C@@H](C)/C=C/C=C/C=C/C=C/C=C/C=C/C=C/[C@H](O[C@@H]2O[C@H](C)[C@@H](O)[C@H](N)[C@@H]2O)C[C@@H]2O[C@](O)(C[C@@H](O)C[C@@H](O)[C@H](O)CC[C@@H](O)C[C@@H](O)CC(=O)O[C@H]1C)C[C@H](O)[C@H]2C(=O)O [amphotericin B]

MIC [2, 5]: 512 µg/mL (≈ 1190 µM) | MIC ([2]; Enterococcus faecalis, ATCC29212, Enterococcus faecalis ATCC 29212, read-out: MIC): 1020 µg/mL (≈ 2390 µM) | IC50 [3]: IC50 was not reached | melting point: 163 to 164 °C
SMILES: CCOc1ccc(NCc2c(C)nc(-c3ccccc3)nc2Nc2ccc(F)cc2)cc1 [Compound 2, 5-[(4-ethoxyanilino)methyl]-N-(4-fluorophenyl)-6-methyl-2-phenylpyrimidin-4-amine]
MBC [2, 5]: 1024 µg/mL (≈ 2390 µM) | MBC ([2]; Enterococcus faecalis, ATCC29212, Enterococcus faecalis ATCC 29212, read-out: MBC): 512 µg/mL (≈ 1190 µM) | effect on L-929 survival (L-929 cell line): did not significantly affect L-929 survival | IC50 (HepaRG): 404 µM

melting point: 184 °C
SMILES: Cc1nc(-c2ccccc2)nc(Nc2ccc(F)cc2)c1C=O [Compound 4, 4-(4-fluoroanilino)-6-methyl-2-phenylpyrimidine-5-carbaldehyde]

MIC [4]: 2 µg/mL (≈ 4.19 µM)
SMILES: CNC(C)C1CCC(N)C(OC2C(N)CC(N)C(OC3OCC(C)(O)C(NC)C3O)C2O)O1 (centres unmarked) [gentamicin]
